# Measurements reported in patent US20140044766A1, “METHOD FOR THE ANTIMICROBIAL PROTECTION OF AN OBJECT USING AN ANTIMICROBIAL PRESSURE-SENSITIVE ADHESIVE PLASTICS FILM” (priority 2007, published 2014).
# “Also recorded” adds a separate entry of the source.
# Key:
# [1] = system: Staphylococcus aureus bacteria; assay: inhibition zone method, similar to Japanese standard JIS L 1902: 2002; format: cell-based
# Description: The antimicrobial activity of the films was determined using the inhibition zone method, similar to that described in Japanese standard JIS L 1902: 2002. The film was cut into small disks with a diameter of 1 cm. They were immersed in a dish containing a nutrient medium and a known quantity of yellow colored Staphylococcus aureus bacteria. […] A protective halo was formed around the treated samples that was termed the inhibition zone, as shown in FIGS. 4-1 to 4-15 representing the results for the antimicrobial films of Examples 1 to 15. Measuring this halo allowed the intensity of the antimicrobial activity of the film to be determined.
# Pseudomonas aeruginosa = settings: cited from earlier work
# [2] = system: penicillin-resistant Stapylococcus aureus; settings: cited from earlier work
structure (smiles),measurement,setting,value
"Oc1cc(Cl)ccc1Oc1ccc(Cl)cc1Cl [triclosan, 5-chloro-2-(2,4-dichlorophenoxy)phenol]",antimicrobial activity in varnish-coated films (comparison in words),[1]; agent incorporated in acrylic varnish on PVC film,more effective than Parmetol CF10 and Irgaguard H6000; also recorded: retained a high activity compared with the others
same,antimicrobial activity in a film incorporating the agent in its material (comparison in words),"[1]; cast PVC film, Examples 8 to 15",highest antimicrobial activity
same,effect on Pseudomonas aeruginosa,Pseudomonas aeruginosa,not affected
same,effect on penicillin-resistant Stapylococcus aureus,[2],simply inhibited
